Calls of active or inactive are those of the source. The rule behind the calls is not given here.

The test system of the first assay is SARS-CoV-2. The assay can be described thus: Antiviral activity against SARS-CoV-2 infected in vero E6 cells assessed as inhibition of viral replication at 100 uM preincubated for 1 hr followed by viral infection for 24 hrs by qRT-PCR analysis. The format is functional, organism-based. The following applies: Severe acute respiratory syndrome coronavirus 2, Vero C1008, time 25.0 hrs. A general note: In qPCR the cycle at which signal appears reflects the starting amount.
On to `Cc1ccc2nc(C34CC5CC(CC(C5)C3)C4)cc(C(=O)O)c2c1`, for which the result was Active. Still for that read-out and setting: under `CCn1ccc(-c2nc(C)nn2-c2cc(S(N)(=O)=O)ccc2F)cc1=O` stands “Active”; under `Cc1nn(-c2ccccc2)c(Oc2ccccc2)c1CCC(=O)Nc1ccccc1`, “Active”; under `Cn1cc(-c2cc3n(n2)CCC(=O)N3CC(=O)NCc2ccco2)c2ccccc21`, “Active”. The same measure, in the same setting: under `O=C(O)c1cccc(-c2ccc(CNCCc3ccccc3)o2)c1` stands “Active”; under `O=C(O)c1ccc(OCc2cccc3ccccc23)cc1`, “Active”; under `CC(=O)N1CCN(c2nc(C)cc(Nc3ccccc3)n2)CC1`, “Active”.

The next assay deals with SARS-CoV-2. In words: Antiviral activity against SARS-CoV-2 infected in vero E6 cells assessed as inhibition of viral replication at 100 uM preincubated for 1 hr followed by viral infection for 2 hrs by qRT-PCR analysis. The following applies: Severe acute respiratory syndrome coronavirus 2, Vero C1008, time 3.0 hrs. The class given is functional, organism-based.
Turning to `O=C(O)c1cccc(-c2ccc(CNCCc3ccccc3)o2)c1`, the result was Active.

The record behind these values is ChEMBL document CHEMBL5038605, “Probing the Allosteric Inhibition Mechanism of a Spike Protein Using Molecular Dynamics Simulations and Active Compound Identifications” (J Med Chem, 2022).
